For data set [1] the following is noted: in vivo; cited from earlier work.
Data set [2] deals with T1, LHRH receptors (rat pituitary membranes) (Rattus norvegicus, UniProt P30969).
T1 construct: Pituitary membranes containing LHRH receptors are prepared in batches from quick-frozen rat pituitaries; tissue Hilltop Labs; host or cells: rat pituitary membranes
T1 sequence (P30969 1-327): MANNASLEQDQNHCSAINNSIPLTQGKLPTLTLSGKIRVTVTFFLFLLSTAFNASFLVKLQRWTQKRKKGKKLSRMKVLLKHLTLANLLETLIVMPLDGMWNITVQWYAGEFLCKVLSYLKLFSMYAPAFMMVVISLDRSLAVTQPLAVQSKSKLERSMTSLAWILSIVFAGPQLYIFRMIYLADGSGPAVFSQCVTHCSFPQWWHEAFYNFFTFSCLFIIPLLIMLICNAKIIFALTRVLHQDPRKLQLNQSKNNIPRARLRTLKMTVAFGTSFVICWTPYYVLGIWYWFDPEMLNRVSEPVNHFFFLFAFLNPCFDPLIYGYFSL
The experiment in a line: LHRH radioligand receptor binding assay. The conditions noted are these: radioiodinated [D-Leu6-des Gly10]-LHRH ethyl amide 50 pM, 2 hours at 4° C., read-out: LHRH RECEPTOR BINDING AFFINITY KI. How it is done: Receptor Binding. A radioligand receptor binding assay is performed in a similar way to that described in the literature (J. Marion et al., Mol. Pharmacol. 19 399 (1981)). [D-Leu^6 -des Gly^10 ]-LHRH ethyl amide was radioiodinated by the chloramine-T method and used as the radioligand. Pituitary membranes containing LHRH receptors are prepared in batches from quick-frozen rat pituitaries obtained from Hilltop Labs. The radioligand (50 pM), receptors, and compounds to be tested are coincubated for 2 hours at 4° C. Bound ligand is separated from free ligand via centrifugation and aspiration. Compounds are tested at six half-log concentration increments, and the equilibrium dissociation constant (KI) is calculated from the concentration which displaces 50% of specifically bound radioligand.

The subject of a further data set is serum testosterone. The conditions noted are these: given orally to patients, 200 to 1200 mg daily; cited from earlier work.

Here are results for two molecules from patent US4992421A, “Luteinizing hormone releasing hormone antagonist” (priority 1988, dated 1991).

As usually defined, the Ki is a measure of affinity in units of concentration, obtained from inhibition or displacement.

As to `CCNC(=O)[C@@H]1CCCN1C(=O)[C@H](CCCNC(=N)N)NC(=O)[C@H](CC(C)C)NC(=O)[C@@H](CC(C)C)NC(=O)[C@H](Cc1ccc(O)cc1)NC(=O)[C@H](CO)NC(=O)[C@H](Cc1c[nH]c2ccccc12)NC(=O)[C@H](Cc1c[nH]cn1)NC(=O)[C@@H]1CCC(=O)N1` [leuprolide], the “bioavailable from the duodenum” value in data set [1] is reported as “less than 1%”.

`CC(=O)N1CCN(c2ccc(OCC3COC(Cn4ccnc4)(c4ccc(Cl)cc4Cl)O3)cc2)CC1` (stereo not drawn) [Ketoconazole]: the Ki in data set [2] came out at 2 µM. In the data set on serum testosterone, the “suppression of serum testosterone” value was “dose dependent suppression of serum testosterone”.
